# Test results as given in patent US9296759B2, “Amino-oxazine and amino-dihydrothiazine compounds as beta-secretase modulators and methods of use” (AMGEN INC., priority 2011, dated 2016).
# Assays:
# [1] = tested on: Aβ40 in conditioned medium of cells stably expressing Amyloid Precursor Protein (APP); test: In vitro BACE cell-based assay (HEK cell assay, Aβ40 sandwich ELISA); conditions: Homo sapiens, HEK293; average IC50, Aβ40, 24 h incubation
# Experimental: In Vitro BACE Cell-Based Assay
# The cell-based assay measures inhibition or reduction of Aβ40 in conditioned medium of test compound treated cells expressing amyloid precursor protein.
# Cells stably expressing Amyloid Precursor Protein (APP) were plated at a density of 40K cells/well in 96 well plates (Costar). The cells were cultivated for 24 hours at 37° C. and 5% CO2 in DMEM supplemented with 10% FBS. The test compounds were then added to cells in 10-point dose response concentrations with the starting concentration being either 100 μM or 10 μM. The compounds were diluted from stock solutions in DMSO and the final DMSO concentration of the test compounds on cells was 0.1%. After 24 h of incubation with the test compounds the supernatant conditioned media was collected and the Aβ 40 levels were determined using a sandwich ELISA. The IC50 of the compound was calculated from the percent of control or percent inhibition of Aβ 40 as a function of the concentration of the test compound.
# The sandwich ELISA to detect Aβ 40 was performed in 96 well microtiter plates, which were pre-treated with goat anti-rabbit IgG (Pierce). The capture and detecting antibody pair that were used to detect Aβ 40 from cell supernatants were affinity purified pAb40 (Biosource) and biotinylated 6E10 (Signet Labs Inc.), respectively. The optimal concentration for the pAb40 antibody was 3 μg/ml in Superblock/TBS (Pierce) that was supplemented with 0.05% Tween 20 (Sigma).
# Cellular supernatants were incubated with the capture antibody for 3 h at 4° C., followed by 3 wash steps in TBS-tween (0.05%). The detecting antibody incubation was for 2 h at 4° C., again followed by the wash steps as described previously. The final readout of the ELISA is Time-Resolved Fluorescence (counts per minute) using Delfia reagents Streptavidin-Europium and Enhancement solutions (Perkin Elmer) and the Victor 2 multilabel counter (Perkin Elmer).
# [2] = molecular target: Cathepsin D (Homo sapiens (Human), UniProt P07339); test: In vitro enzymatic Cat D (Cathepsin D) FRET assay; assay type: biochemical; conditions: average IC50
# Experimental: In Vitro Enzymatic Cat D (Cathepsin D) FRET (Fluorescence Resonance Energy Transfer) Assay
# Recombinant CathepsinD was expressed in CHO cells. The assay buffer for CathepsinD is 0.05 M citrate pH 3.5, 10% DMSO final, 5 mM CHAPS. […] The assays are effectively started by the addition of different FRET substrates (20 nM for CathepsinD) and the combination is incubated for one hour. The FRET assay is terminated with by addition of Tris buffer, which raises the pH to neutrality, and the fluorescence is determined. The FRET substrate is a peptide with commercially available fluorophore and quencher, on opposite sides of the BACE cleavage site. […] Proteolytic cleavage of the FRET substrate releases quenching of fluorescence (CathepsinD excitation 500 nm and emission 580 nm).
# [3] = molecular target: BACE 1 (beta secretase enzyme) (Homo sapiens (Human), UniProt P56817); test: In vitro enzymatic BACE FRET assay; assay type: biochemical; conditions: average IC50
# Experimental: In Vitro Enzymatic BACE FRET (Fluorescence Resonance Energy Transfer) Assay
# The assay buffer used in this screen is 0.05 M acetate, pH 4.2, 10% DMSO final, 100 uM genapol (which is a nonionic detergent, below its Critical Micelle Concentration). […] This assay is effectively started by the addition of FRET substrate (50 nM) and the combination is incubated for one hour. The FRET assay is terminated with by addition of Tris buffer, which raises the pH to neutrality, and the fluorescence is determined. The FRET substrate is a peptide with commercially available fluorophore and quencher, on opposite sides of the BACE cleavage site. Proteolytic cleavage of the FRET substrate releases quenching of fluorescence (excitation […] and […]).
# Sequence of Cathepsin D (P07339 65-412, species assumed): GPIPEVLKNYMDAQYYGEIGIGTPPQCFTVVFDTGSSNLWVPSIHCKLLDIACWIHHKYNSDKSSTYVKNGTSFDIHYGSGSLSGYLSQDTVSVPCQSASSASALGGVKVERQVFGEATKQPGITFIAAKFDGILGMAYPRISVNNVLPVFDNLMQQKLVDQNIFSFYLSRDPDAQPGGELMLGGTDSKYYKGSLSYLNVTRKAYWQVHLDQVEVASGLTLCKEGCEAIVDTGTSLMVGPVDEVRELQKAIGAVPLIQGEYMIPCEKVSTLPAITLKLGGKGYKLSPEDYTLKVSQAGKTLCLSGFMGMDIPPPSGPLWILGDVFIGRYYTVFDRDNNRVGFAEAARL
# Sequence of BACE 1 (beta secretase enzyme) (P56817 46-501): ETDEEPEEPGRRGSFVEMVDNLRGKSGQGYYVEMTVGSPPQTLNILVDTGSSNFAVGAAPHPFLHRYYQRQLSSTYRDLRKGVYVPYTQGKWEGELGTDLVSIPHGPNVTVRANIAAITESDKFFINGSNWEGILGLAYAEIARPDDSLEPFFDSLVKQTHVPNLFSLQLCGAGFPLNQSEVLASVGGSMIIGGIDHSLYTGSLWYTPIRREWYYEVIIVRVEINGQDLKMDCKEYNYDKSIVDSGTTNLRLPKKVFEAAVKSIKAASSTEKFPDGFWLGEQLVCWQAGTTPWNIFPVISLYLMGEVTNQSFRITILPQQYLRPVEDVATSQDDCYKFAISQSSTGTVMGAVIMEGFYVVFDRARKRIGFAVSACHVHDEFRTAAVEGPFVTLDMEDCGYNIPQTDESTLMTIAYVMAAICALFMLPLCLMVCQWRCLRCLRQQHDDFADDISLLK
IC50 [1] [nM],IC50 [2] [nM],IC50 [3] [nM],SMILES
64.6,400000,28.4,"COc1cnc(C(=O)Nc2ccc3c(c2)[C@@]2(CCSC(N)=N2)c2cc(O)cc(F)c2O3)cn1 [Example 109, N-((4S)-2-amino-5′-fluoro-7′-hydroxy-5,6-dihydrospiro[1,3-thiazine-4,9′-xanthen]-2′-yl)-5-methoxy-2-pyrazinecarboxamide]"
3090,69900,913,"COc1cnc(C(=O)Nc2ccc3c(c2)[C@]2(CCSC(N)=N2)c2cc(Cl)nc(F)c2O3)cn1 [Example 55, N-((5R)-2′-amino-3-chloro-1-fluoro-5′,6′-dihydrospiro[chromeno[2,3-c]pyridine-5,4′-[1,3]thiazin]-7-yl)-5-methoxy-2-pyrazinecarboxamide]"
0.4,255000,9.3,"NC1=N[C@@]2(CCO1)c1cc(NC(=O)c3ccc(F)cn3)ccc1Oc1c2cc(C2=CCCOC2)nc1F [Example 83, N-((5S)-2′-amino-3-(5,6-dihydro-2H-pyran-3-yl)-1-fluoro-5′,6′-dihydrospiro[chromeno[2,3-c]pyridine-5,4′-[1,3]oxazin]-7-yl)-5-fluoro-2-pyridinecarboxamide]"
14.8,> 400000,45.1,"NC1=N[C@@]2(CCO1)c1cc(NC(=O)c3ccc(Cl)cn3)ccc1Oc1ncccc12 [Example 36, N-((5S)-2′-amino-5′,6′-dihydrospiro[chromeno[2,3-b]pyridine-5,4′-[1,3]oxazin]-7-yl)-5-chloro-2-pyridinecarboxamide]"
1.8,159000,5.4,"COc1cnc(C(=O)Nc2ccc3c(c2)[C@@]2(CCSC(N)=N2)c2cc(C4=CCOCC4)nc(F)c2O3)c(C)c1 [Example 121, N-((5S)-2′-amino-3-(3,6-dihydro-2H-pyran-4-yl)-1-fluoro-5′,6′-dihydrospiro[chromeno[2,3-c]pyridine-5,4′-[1,3]thiazin]-7-yl)-5-methoxy-3-methyl-2-pyridinecarboxamide]"
22.7,> 400000,12.9,"COc1nc(C2CC2)cc2c1Oc1ccc(NC(=O)c3ccc(Cl)cn3)cc1[C@@]21CCOC(N)=N1 [Example 53, N-((5S)-2′-amino-3-cyclopropyl-1-methoxy-5′,6′-dihydrospiro[chromeno[2,3-c]pyridine-5,4′-[1,3]oxazin]-7-yl)-5-chloro-2-pyridinecarboxamide]"

# More lines, now with the values behind:
SMILES,IC50 [1] [nM],IC50 [2] [nM],IC50 [3] [nM]
"COc1ccc(C(=O)Nc2ccc3c(c2)[C@@]2(CCSC(N)=N2)c2cc(-c4ccnc(F)c4)nc(F)c2O3)nc1 [Example 115, N-((5S)-2′-amino-1-fluoro-3-(2-fluoro-4-pyridinyl)-5′,6′-dihydrospiro[chromeno[2,3-c]pyridine-5,4′-[1,3]thiazin]-7-yl)-5-methoxy-2-pyridinecarboxamide]",2.2,162000,0.4
"COc1cc(F)c2c(c1)[C@]1(CCSC(N)=N1)c1cc(NC(=O)c3cnc(OC)cn3)ccc1O2 [Example 50, N-((4S)-2-amino-5′-fluoro-7′-methoxy-5,6-dihydrospiro[1,3-thiazine-4,9′-xanthen]-2′-yl)-5-methoxy-2-pyrazinecarboxamide]",46.5,> 400000,40.5
"NC1=N[C@@]2(CCO1)c1cc(NC(=O)c3ccc(Cl)cc3F)ccc1Oc1ncc(Br)cc12 [Example 37, N-((5S)-2′-amino-3-bromo-5′,6′-dihydrospiro[chromeno[2,3-b]pyridine-5,4′-[1,3]oxazin]-7-yl)-4-chloro-2-fluorobenzamide]",125,> 400000,120
"NC1=N[C@@]2(CCS1)c1cc(NC(=O)c3ccc(F)cn3)ccc1Oc1c2cc(-c2ccnc(F)c2)nc1F [Example 118, N-((5S)-2′-amino-1-fluoro-3-(2-fluoro-4-pyridinyl)-5′,6′-dihydrospiro[chromeno[2,3-c]pyridine-5,4′-[1,3]thiazin]-7-yl)-5-fluoro-2-pyridinecarboxamide]",4.2,400000,1.5
